The text below walks through data of ChEMBL document CHEMBL1201862, “PubChem BioAssay data set” (2004).

One may read the IC50 as the concentration at which inhibition is half-maximal.

The source made the active and inactive calls. Cut-off read from the data, not from the text of the source: active = IC50 of 10 µM or less and inactive = more.

This assay concerns the target T1, COUP transcription factor 2 (Homo sapiens, UniProt P24468).
T1 sequence (P24468 whole entry): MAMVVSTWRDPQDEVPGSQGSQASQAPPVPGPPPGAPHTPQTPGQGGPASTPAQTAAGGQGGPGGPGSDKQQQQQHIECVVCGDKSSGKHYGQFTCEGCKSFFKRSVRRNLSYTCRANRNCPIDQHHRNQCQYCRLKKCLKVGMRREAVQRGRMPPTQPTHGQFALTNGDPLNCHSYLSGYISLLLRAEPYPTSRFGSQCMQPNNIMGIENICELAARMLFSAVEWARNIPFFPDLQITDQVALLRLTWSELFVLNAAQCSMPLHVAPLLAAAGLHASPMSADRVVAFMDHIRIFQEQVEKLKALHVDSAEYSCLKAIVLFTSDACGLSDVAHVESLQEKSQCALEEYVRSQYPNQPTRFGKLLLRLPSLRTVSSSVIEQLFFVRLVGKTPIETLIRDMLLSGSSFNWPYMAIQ
The assay can be described thus: Luminescence-based cell-based high throughput dose response assay to identify inhibitors of COUP-TFII (NR2F2). The format is functional.
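Note: HEK293 cells transiently cotransfected with COUP-TFII expression vector and reporter; luciferase reporter luminescence driven by COUP-TFII from the pX2-168 reporter plasmid.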

For the compound `CCOc1cccc(/C=N/NC(=S)Nc2ccccc2[N+](=O)[O-])c1O`, the IC50 was 5.05 µM (active).
